Measurements: ChEMBL document CHEMBL1153245, “A profile of the in vitro anti-tumor activity of imidazolium-based ionic liquids” (2010)

Assays:
Format in all cases: functional
UACC-62 = experiment: Anticancer activity against human UACC62 cells after 48 hrs by sulforhodamine B assay
KM12 = experiment: Anticancer activity against human KM12 cells assessed cell growth at 10 uM after 48 hrs by sulforhodamine B assay relative to control
NCI-H23 = experiment: Anticancer activity against human NCI-H23 cells after 48 hrs by sulforhodamine B assay; details: for CC50: read-out: LC50 (the source's name)
COLO 205 = experiment: Anticancer activity against human COLO205 cells assessed cell growth at 10 uM after 48 hrs by sulforhodamine B assay relative to control
HCT-15 [1] = experiment: Anticancer activity against human HCT15 cells after 48 hrs by sulforhodamine B assay; details: for CC50: read-out: LC50 (the source's name)
OVCAR-8 [2] = experiment: Anticancer activity against human OVCAR8 cells assessed cell growth at 10 uM after 48 hrs by sulforhodamine B assay relative to control
MDA-MB-231 = experiment: Anticancer activity against human MDA-MB-231 cells after 48 hrs by sulforhodamine B assay; details: for CC50: read-out: LC50 (the source's name)
NCI-H322M [3] = experiment: Anticancer activity against human NCI-H322M cells assessed cell growth at 10 uM after 48 hrs by sulforhodamine B assay relative to control
SN12C = experiment: Anticancer activity against human SN12C cells assessed cell growth at 10 uM after 48 hrs by sulforhodamine B assay relative to control
MOLT-4 [4] = experiment: Anticancer activity against human MOLT4 cells assessed cell growth at 10 uM after 48 hrs by sulforhodamine B assay relative to control
MDA-MB-468 = experiment: Anticancer activity against human MDA-MB-468 cells after 48 hrs by sulforhodamine B assay
NCI-H322M [5] = experiment: Anticancer activity against human NCI-H322M cells after 48 hrs by sulforhodamine B assay
MOLT-4 [6] = experiment: Anticancer activity against human MOLT4 cells after 48 hrs by sulforhodamine B assay
U-251 = experiment: Anticancer activity against human U251 cells assessed cell growth at 10 uM after 48 hrs by sulforhodamine B assay relative to control
SK-OV-3 = experiment: Anticancer activity against human SKOV3 cells after 48 hrs by sulforhodamine B assay; details: for CC50: read-out: LC50 (the source's name)
NCI-H460 = experiment: Anticancer activity against human NCI-H460 cells after 48 hrs by sulforhodamine B assay
OVCAR-8 [7] = experiment: Anticancer activity against human OVCAR8 cells after 48 hrs by sulforhodamine B assay
SR = experiment: Anticancer activity against human SR cells after 48 hrs by sulforhodamine B assay; details: for CC50: read-out: LC50 (the source's name)
NCI-H522 = experiment: Anticancer activity against human NCI-H522 cells after 48 hrs by sulforhodamine B assay
SF-539 = experiment: Anticancer activity against human SF539 cells assessed cell growth at 10 uM after 48 hrs by sulforhodamine B assay relative to control
[8] = Anticancer activity against human […] cells after 48 hrs by sulforhodamine B assay; details: for CC50: read-out: LC50 (the source's name)
HL-60(TB) = experiment: Anticancer activity against human HL-60(TB) cells after 48 hrs by sulforhodamine B assay; details: for CC50: read-out: LC50 (the source's name)
A549 [9] = experiment: Anticancer activity against human A549 cells after 48 hrs by sulforhodamine B assay
RXF 393 = experiment: Anticancer activity against human RXF393 cells after 48 hrs by sulforhodamine B assay
HT-29 = experiment: Anticancer activity against human HT-29 cells after 48 hrs by sulforhodamine B assay; details: for CC50: read-out: LC50 (the source's name)
OVCAR-3 = experiment: Anticancer activity against human OVCAR-3 cells assessed cell growth at 10 uM after 48 hrs by sulforhodamine B assay relative to control
BT-549 = experiment: Anticancer activity against human BT549 cells assessed cell growth at 10 uM after 48 hrs by sulforhodamine B assay relative to control
NCI-H226 = experiment: Anticancer activity against human NCI-H226 cells after 48 hrs by sulforhodamine B assay
SF-295 [10] = experiment: Anticancer activity against human SF295 cells assessed cell growth at 10 uM after 48 hrs by sulforhodamine B assay relative to control
A498 [11] = experiment: Anticancer activity against human A498 cells after 48 hrs by sulforhodamine B assay; details: for CC50: read-out: LC50 (the source's name)
SK-MEL-5 = experiment: Anticancer activity against human SK-MEL-5 cells after 48 hrs by sulforhodamine B assay; details: for CC50: read-out: LC50 (the source's name)
SF-295 [12] = experiment: Anticancer activity against human SF295 cells after 48 hrs by sulforhodamine B assay; details: for CC50: read-out: LC50 (the source's name)
A498 [13] = experiment: Anticancer activity against human A498 cells assessed cell growth at 10 uM after 48 hrs by sulforhodamine B assay relative to control
A549 [14] = experiment: Anticancer activity against human A549 cells assessed cell growth at 10 uM after 48 hrs by sulforhodamine B assay relative to control
HCT-15 [15] = experiment: Anticancer activity against human HCT15 cells assessed cell growth at 10 uM after 48 hrs by sulforhodamine B assay relative to control
UACC-257 = experiment: Anticancer activity against human UACC257 cells after 48 hrs by sulforhodamine B assay
MDA-MB-435 = experiment: Anticancer activity against human MDA-MB-435 cells after 48 hrs by sulforhodamine B assay; details: for CC50: read-out: LC50 (the source's name)
ACHN = experiment: Anticancer activity against human ACHN cells after 48 hrs by sulforhodamine B assay
OVCAR-4 = experiment: Anticancer activity against human OVCAR4 cells after 48 hrs by sulforhodamine B assay; details: for CC50: read-out: LC50 (the source's name)
EKVX = experiment: Anticancer activity against human EKVX cells after 48 hrs by sulforhodamine B assay; details: for CC50: read-out: LC50 (the source's name)
MCF7 = experiment: Anticancer activity against human MCF7 cells after 48 hrs by sulforhodamine B assay

## CCCCCCCCCCCCCCCCCC[n+]1ccn(C)c1.F[P-](F)(F)(F)(F)F
UACC-62
  GI50: 1.18 µM
  LC50: 5.2 µM
KM12
  Activity: -60.81%
NCI-H23
  GI50: 0.424 µM
  CC50: 7.98 µM
COLO 205
  Activity: -27.43%
HCT-15 [1]
  GI50: 1.01 µM
  CC50: 4.66 µM
OVCAR-8 [2]
  Activity: -34.11%
MDA-MB-231
  GI50: 1.03 µM
  CC50: 5.11 µM
NCI-H322M [3]
  Activity: 11.62%
SN12C
  Activity: -24.52%
MOLT-4 [4]
  Activity: 2.98%
MDA-MB-468
  GI50: 0.159 µM
  LC50: 5.11 µM
NCI-H322M [5]
  GI50: 1.61 µM
  LC50: > 100 µM
MOLT-4 [6]
  GI50: 0.589 µM
  LC50: > 100 µM
U-251
  Activity: -22.42%
SK-OV-3
  GI50: 1.81 µM
  CC50: 4.2 µM
NCI-H460
  GI50: 0.636 µM
  LC50: 4.38 µM
OVCAR-8 [7]
  GI50: 1.3 µM
  LC50: 9.8 µM
SR
  GI50: 1.85 µM
  CC50: > 100 µM
NCI-H522
  GI50: 1.16 µM
  LC50: 6.77 µM
SF-539
  Activity: -80.04%
[8]
  GI50: 0.017 µM
  CC50: 0.811 µM
HL-60(TB)
  GI50: 0.185 µM
  CC50: > 100 µM
A549 [9]
  LC50 (concentration killing 50% of cells): 9.37 µM
RXF 393
  GI50: 0.467 µM
  LC50: 5.98 µM
HT-29
  GI50: 0.408 µM
  CC50: > 100 µM
OVCAR-3
  Activity: -57.4%
BT-549
  Activity: -23.5%
NCI-H226
  GI50: 1.17 µM
  LC50: 5.74 µM
SF-295 [10]
  Activity: -28.21%
A498 [11]
  GI50: 1.15 µM
  CC50: 7.55 µM
SK-MEL-5
  GI50: 0.617 µM
  CC50: 4.37 µM
SF-295 [12]
  GI50: 0.503 µM
  CC50: 6.02 µM
A498 [13]
  Activity: -51.56%
A549 [14]
  Activity: -24.42%
HCT-15 [15]
  Activity: 9.24%
UACC-257
  GI50: 1.69 µM
  LC50: 9.66 µM
MDA-MB-435
  GI50: 0.851 µM
  CC50: 6.64 µM
ACHN
  GI50: 0.934 µM
  LC50: 4.62 µM
OVCAR-4
  GI50: 1.03 µM
  CC50: 6.33 µM
EKVX
  GI50: 1.12 µM
  CC50: 7.64 µM
MCF7
  GI50: 0.728 µM
  LC50 (50% cell kill): 4.5 µM

## CCCCCCCCCCCC[n+]1ccn(C)c1.[Cl-]
UACC-62; Homo sapiens, UACC-62, 48 h
  GI50: 3.12 µM
KM12
  Activity: 14.03%
NCI-H23
  GI50: 0.885 µM
NCI-H23; Homo sapiens, NCI-H23, 48 h
  CC50: > 100 µM
COLO 205
  Activity: 8.8%
HCT-15 [1]; Homo sapiens, HCT-15, 48 h
  GI50: 20.8 µM
  CC50: > 100 µM
OVCAR-8 [2]
  Activity: 11.53%
MDA-MB-231; Homo sapiens, MDA-MB-231, 48 h
  GI50: 3.39 µM
  CC50: 63.6 µM
NCI-H322M [3]
  Activity: 57.06%
SN12C
  Activity: 19.36%
MOLT-4 [4]
  Activity: 78.62%
MDA-MB-468; Homo sapiens, MDA-MB-468, 48 h
  GI50: 0.384 µM
NCI-H322M [5]; Homo sapiens, NCI-H322M, 48 h
  GI50: 22.6 µM
MOLT-4 [6]; Homo sapiens, MOLT-4, 48 h
  GI50: 2.9 µM
U-251
  Activity: 21.74%
SK-OV-3; Homo sapiens, SK-OV-3, 48 h
  GI50: 4.76 µM
  CC50: > 100 µM
NCI-H460; Homo sapiens, NCI-H460, 48 h
  GI50: 3.39 µM
OVCAR-8 [7]; Homo sapiens, OVCAR-8, 48 h
  GI50: 2.18 µM
SR; Homo sapiens, SR, 48 h
  GI50: 0.597 µM
  CC50: 97.6 µM
NCI-H522; Homo sapiens, NCI-H522, 48 h
  GI50: 2.37 µM
SF-539
  Activity: 30.45%
[8]
  GI50: 0.109 µM
[8]; Homo sapiens, RPMI8266, 48 h
  CC50: 6.13 µM
HL-60(TB); Homo sapiens, HL-60, 48 h
  GI50: 0.331 µM
  CC50: 7.78 µM
A549 [9]; Homo sapiens, A549, 48 h
  GI50: 5.92 µM
RXF 393; Homo sapiens, RXF 393, 48 h
  GI50: 5.9 µM
HT-29; Homo sapiens, HT-29, 48 h
  GI50: 2.6 µM
  CC50: > 100 µM
OVCAR-3
  Activity: 45.92%
NCI-H226; Homo sapiens, NCI-H226, 48 h
  GI50: 3.55 µM
SF-295 [10]
  Activity: 9.99%
A498 [11]; Homo sapiens, A498, 48 h
  GI50: 4.28 µM
  CC50: > 100 µM
SK-MEL-5; Homo sapiens, SK-MEL-5, 48 h
  GI50: 1.22 µM
SK-MEL-5
  CC50: 7.8 µM
SF-295 [12]; Homo sapiens, SF-295, 48 h
  GI50: 2.36 µM
  CC50: > 100 µM
A498 [13]
  Activity: 12.45%
A549 [14]
  Activity: 32.62%
HCT-15 [15]
  Activity: 82.04%
UACC-257; Homo sapiens, UACC-257, 48 h
  GI50: 1.68 µM
MDA-MB-435; Homo sapiens, MDA-MB-435, 48 h
  GI50: 1.79 µM
  CC50: 69.1 µM
ACHN; Homo sapiens, ACHN, 48 h
  GI50: 7.24 µM
OVCAR-4; Homo sapiens, OVCAR-4, 48 h
  GI50: 3.17 µM
  CC50: > 100 µM
EKVX; Homo sapiens, EKVX, 48 h
  GI50: 0.873 µM
  CC50: > 100 µM
MCF7; Homo sapiens, MCF7, 48 h
  GI50: 1.69 µM
